Where “and” joins values, the source holds several entries; their conditions need not be identical. Equal entries are not always repeated. Where two headings read alike, the source gives them in different places. Marks after values point to notes of the source that are not given here.
What was measured:
[1] = cited from earlier work
[2] = cited from earlier work; remark: listed apart in the source
[3] = 25°C, cited from earlier work
[4] = 25°C, cited from earlier work; remark: listed apart in the source
[5] = Stability and protonation constants of Cu^II complexes (spectrophotometry, pH-potentiometry); format: physicochemical; details: 25°C
Method: Stability constant of Cu(DOTPI) complex was determined by spectrophotometry, studying the Cu^II-DOTPI systems at the absorption band of Cu^II-complex at [H^+] = 0.01– 0.2 M over the wavelength range of 400–800 nm. Concentrations of Cu^II and DOTPI were 1 mM. The H^+ concentration in the samples was adjusted by addition of calculated amounts of 2.0 M HCl, while ionic strength was not constant in these samples. Samples were kept at 25°C for a week. Absorbance values were determined at 9 wavelengths (550, 575, 600, 625, 650, 675, 700, 725, and 750 nm). For calculation of stability and protonation constants of Cu(DOTPI), molar absorptivities of CuCl2, and Cu(HxL) species (wherein x = 0, 1, 2 …5) were determined by recording the spectra of 1.0 × 10^−3, 2.0 × 10^−3 and 3.0 × 10^−3 M solutions of CuCl2 and Cu(DOTPI) in the pH range of 1.7–11.7. The protonation constants of the complexes Cu(DOTPI) and the stability and protonation constants of the dinuclear Cu2(DOTPI) complexes were determined by pH-potentiometric titrations, made at 1:1 and 2:1 metal to ligand concentration ratios.
The stability constant of the Cu(DOTPI(Chx)4) complex has been determined by spectrophotometry with the use of competition reactions between DOTPI(Chx)4 and EDTA for the Cu^2+ at pH = 5.0. The concentration of Cu(EDTA) was 0.2 mM, while that of the DOTPI(Chx)4 was varied between 0.1 and 1.0 mM (5 samples). The samples were kept at 25°C for 2 weeks. The absorbance values and the molar absorptivities of CuCl2, Cu(DOTPI(Chx)4), and Cu(EDTA) have been determined at 11 wavelength (300, 304, 308, 312, 316, 320, 324, 328, 332, 336, and 340 nm) values between 300 and 340 nm. The molar absorptivities of CuCl2, Cu(DOTPI(Chx)4), and Cu(EDTA) were deteremined in 0.05, 0.1, 0.2, 0.3, and 0.4 mM solutions. The absorbance and pH values were determined in the samples after the equilibrium was reached (the time needed to reach the equilibria was determined by spectrophotometry). The spectrophotometric measurements were made with the use of 1.0 cm cells with a Cary 1E spectrophotometer at 25°C. The protonation constants of Cu(DOTPI(Chx)4) complex were determined by pH-potentiometric titrations at 1:1 metal to ligand molar ratio.
For pH measurements and titrations, a Metrohm 785 DMP Titrino titration workstation and a Metrohm-6.0233.100 combined electrode were used. Equilibrium measurements were carried out at a constant ionic strength (0.15 M NaCl) in 6 mL samples at 25°C. The solutions were stirred, and constantly purged with N2. The titrations were performed in a pH range of 1.7–11.7. KH-phthalate (pH = 4.005) and borax (pH = 9.177) buffers were used to calibrate the pH meter. For calculation of [H^+] from measured pH values, the method proposed by Irving et al. was used (Irving et al., [1967]). A 0.01 M HCl solution was titrated with the standardized NaOH solution in the presence of 0.1 M NaCl. Differences between the measured (pHread) and calculated pH (–log[H^+]) values were used to obtain the equilibrium H^+ concentration from the pH values, measured in the titration experiments. For the equilibrium calculations, the stoichiometric water ionic product (pKw) is also needed to calculate [H^+] values in basic conditions. […] For the calculation of the equilibrium constants the program PSEQUAD (Zekany and Nagypal, [1985]) was used.
(§1) 2. Protonation and complexation equilibria of DOTPI and
(§2) The protonation processes of the DOTPI and DOTPI(Chx)4, ligands have been studied by pH-potentiometry. The protonation constants (logKiH) of ligands are defined according to Eq. (1).
(§3) The stability and protonation constants of DOTPI and DOTPI(Chx)4 complexes with several metal ions were determined by pH-potentiometric and UV/Vis spectrophotometric, methods.
The stability and protonation constants of the metal complexes formed with the DOTPI and […]

[6] = Protonation constants of ligands by pH-potentiometry; format: physicochemical; details: 25°C, I = 0.15 M NaCl
Text: (§4) For determining the protonation constants of DOTPI(Chx)4 and DOTPI three parallel pH-potentiometric titration were made with 0.2 M NaOH in 0.002 M ligand solutions. The stability and protonation constants of the Ca^II and Zn^II complexes formed with DOTPI(Chx)4 and DOTPI ligands have been determined by direct pH-potentiometric titration made at 1:1 and 2:1 metal to ligand concentration ratios. (the concentration of ligands was 0.002 M). For the calculation of the logKML and logKMLHi values, the mL base—pH data used were obtained in the pH range 1.7–12.0.
(§5) For pH measurements and titrations, a Metrohm 785 DMP Titrino titration workstation and a Metrohm-6.0233.100 combined electrode were used. Equilibrium measurements were carried out at a constant ionic strength (0.15 M NaCl) in 6 mL samples at 25°C. The solutions were stirred, and constantly purged with N2. The titrations were performed in a pH range of 1.7–11.7. KH-phthalate (pH = 4.005) and borax (pH = 9.177) buffers were used to calibrate the pH meter. For calculation of [H^+] from measured pH values, the method proposed by Irving et al. was used (Irving et al., [1967]). A 0.01 M HCl solution was titrated with the standardized NaOH solution in the presence of 0.1 M NaCl. Differences between the measured (pHread) and calculated pH (–log[H^+]) values were used to obtain the equilibrium H^+ concentration from the pH values, measured in the titration experiments. For the equilibrium calculations, the stoichiometric water ionic product (pKw) is also needed to calculate [H^+] values in basic conditions. The VNaOH – pHread data pairs of the HCl – NaOH titration obtained in the pH range 10.5–12 have been used to calculate the pKw value (pKw = 13.85). For the calculation of the equilibrium constants the program PSEQUAD (Zekany and Nagypal, [1985]) was used.
as §1, §2, §3
(§6) The stability and protonation constants of the metal complexes formed with the DOTPI and DOTPI(Chx)4, ligands, defined by Eqs. […]
(§7) where i = 1, 2, 3…5. The KML and KMHiL values characterizing the formation of DOTPI and DOTPI(Chx)4 complexes of CaII and ZnII have been calculated from the pH-potentiometric titration data obtained at 1:1 metal to ligand concentration ratios. The protonation constants of the complexes Cu(DOTPI) and Cu(DOTPI( Chx)4) were also determined by pH-potentiometric titrations, made at 1:1 metal to ligand concentration ratio. The pH-potentiometric titrations of DOTPI ligand were also performed at 2:1 metal-to-ligand ratio in order to examine the possible formation of dinuclear CaII-, ZnII-, and CuII-DOTPI complexes.
(§8) The stability and protonation constants of the dinuclear complexes formed with the DOTPI […]
(§9) where i=1 and 2. In calculating the equilibrium constants, the best fit of the mL base – pH data was obtained by assuming the formation of ML, MHL, MH 2L, MH3L, MH4L, MH5L, M2L, M2LH, and M2LH2 complexes with DOTPI and DOTPI(Chx)4.
(§10) (also on this page, place not known: ]H][LH[ ]LH[K 1i iH + − = DOTPI( Chx)4 f ormed ]L][M[ ]ML[K ML = ]H][LMH[ ]LMH[K 1i i LMHi + − = i 3 …5. Ca II Zn II -potentiometric pH - metal -to-ligand Cu II-DOTPI ]M][ML[ ]LM[K 2 LM2 = ]H][LHM[ ]LHM[K 1i2 i2 LHM i2 + − = pH MH 4L,) […]

[7] = Stability and protonation constants of Ca^II complexes (pH-potentiometry); format: physicochemical; details: 25°C, I = 0.15 M NaCl, potentiometry
Text: as §4, §5, §1, §2, §3, §6
as §7, with “The pH-potentiometric titrations of DOTPI ligand were also performed at 2:1 metal-to-ligand ratio in order to examine the possible formation of dinuclear CaII-, ZnII-, and CuII-DOTPI complexes.” left out

[8] = Stability and protonation constants of Zn^II complexes (pH-potentiometry); format: physicochemical; details: 25°C
Text: as §4, §5, §1, §2, §3, §6, §7, §8, §9, §10

[9] = set-up: method as in Chaves et al., [1992]; details: ref Chaves et al., [1992]; cited from earlier work
[10] = 25°C, I = 0.15 M NaCl, ref Baranyai et al., [2010]
[11] = I = 0.15 M NaCl, ref Takács et al., [2014]
[12] = 25°C, I = 0.1 M KNO3, ref Bazakas and Lukeš, [1995], Kotková et al., [2009]
[13] = 25°C, I = 0.1 M KNO3, ref Lázár et al., [1991]
[14] = I = 0.1 M KNO3, ref Baranyai et al., [2007]
[15] = I = 0.1 M KNO3, ref Desreux et al., [1981]

Compound: O=C([O-])CN(CCN(CC(=O)[O-])CC(=O)[O-])CC(=O)[O-].[Cu+2] [Cu(EDTA), reference compound]
- stability constant of the Cu(EDTA) complex ([1]; taken from the literature): 19.05

Compound: O=C(O)CN1CCN(CC(=O)O)CCN(CC(=O)O)CCN(CC(=O)O)CC1 [DOTA, 1,4,7,10-tetraazacyclododecane-1,4,7,10-tetraacetic acid]
- log K1H [2, 10]: 9.14
- log K2H [2, 10]: 9.21
- log K3H [2, 10]: 4.48
- log K4H [2, 10]: 4.03
- log K5H [2, 10]: 1.99
- log K6H [2, 10]: 1.58
- Σlog KiH (total basicity) [2, 10]: 30.43
- protonation constant CaHL ([3]; 0.15 M NaCl): 3.90 (2)
- logKML, CaL [3, 11]: 13.84 (1)
- protonation constant CuH2L ([1]; 25°C, 0.15 M NaCl): 3.41 (1)
- protonation constant CuH3L ([1]; 25°C, 0.15 M NaCl): 0.83 (2)
- protonation constant CuHL ([1]; 25°C, 0.15 M NaCl): 4.08 (1)
- logKML, CuL ([1]; 25°C, I = 0.15 M NaCl, ref Takács et al., [2014]): 21.97 (1)
- protonation constant ZnH2L ([4]; 0.15 M NaCl): 3.40 (1)
- protonation constant ZnHL ([4]; 0.15 M NaCl): 4.16 (2)
- logKML, ZnL [4, 11]: 17.35 (1)

Compound: O=C(CCP(=O)(O)CN1CCN(CP(=O)(O)CCC(=O)NC2CCCCC2)CCN(CP(=O)(O)CCC(=O)NC2CCCCC2)CCN(CP(=O)(O)CCC(=O)NC2CCCCC2)CC1)NC1CCCCC1 [DOTPI(Chx)4]
- protonation constant CuH2L ([5]; 0.15 M NaCl): 1.55 (2)
- protonation constant CuHL ([5]; 0.15 M NaCl): 2.46 (1)
- logKML, CuL ([5]; I = 0.15 M NaCl, UV/Vis spectroscopy): 20.42 (1)^a
- log K1H [6]: 9.89 (1)
- log K2H [6]: 7.73 (1)
- log K3H [6]: 3.34 (1)
- Σlog KiH (total basicity) ([6]; distant carboxylate groups of DOTPI not considered): 20.96
- logKML, CaL [7]: 8.99 (2)^b
- protonation constant ZnHL ([8]; 0.15 M NaCl): 2.44 (8)
- logKML, ZnL ([8]; I = 0.15 M NaCl, potentiometry): 15.13 (1)^b

Compound: O=[PH](O)CN1CCN(C[PH](=O)O)CCN(C[PH](=O)O)CCN(C[PH](=O)O)CC1 [DOTP^H]
- log K1H [2, 12]: 10.41 and 10.58
- log K2H [2, 12]: 6.83 and 6.93
- log K3H [2, 12]: 1.97 and 1.90
- Σlog KiH (total basicity) [2, 12]: 19.21 and 19.41
- log K1H [2, 13]: 10.94
- log K2H [2, 13]: 8.24
- log K3H [2, 13]: 3.71
- Σlog KiH (total basicity) [2, 13]: 22.89
- protonation constant CaHL ([3]; 0.1 M KNO3): 3.94
- logKML, CaL [3, 14]: 9.46
- logKML, CaL [3, 15]: 9.39
- logKML, CuL ([1]; 25°C, I = 0.1 M KNO3, ref Baranyai et al., [2007]): 18.03
- logKML, CuL ([1]; 25°C, I = 0.1 M KNO3, ref Desreux et al., [1981]): 19.59
- protonation constant ZnHL ([4]; 0.1 M KNO3): 2.62
- logKML, ZnL [4, 14]: 14.60
- logKML, ZnL [4, 15]: 15.80

Compound: O=C(O)CN(CCN(CC(=O)O)CC(=O)O)CC(=O)O [EDTA, ethylenediamine-tetraacetic acid]
- logK1H ([2]; taken from the literature): 9.43
- logK2H ([2]; taken from the literature): 6.12
- logK3H ([2]; taken from the literature): 2.85
- logK4H ([2]; taken from the literature): 2.18
- logK5H ([2]; taken from the literature): 1.77

Compound: O=C([O-])CN1CCN(CC(=O)O)CCN(CC(=O)O)CCN(CC(=O)O)CC1.[Na+] [[Na(DOTA)]^3−]
- logKNaL [9]: 4.38
